Counter-ions that a name gives are not always drawn.

Holding throughout (type): cell-based
Test [1] deals with HCT-116 (Colon carcinoma) cells. The test is described as follows: MTT cell viability assay, HCT-116 cells. To be noted: Homo sapiens, about 24 hours incubation. Here is the method: (§1) Briefly, the cell lines were suspended in medium at concentration of about 5×10^4 cells per well in Corning® 96-well tissue culture plates and incubated for about 24 hours. Extracts prepared according to Example 1 were rehydrated, diluted ten times, and each dilution was added to a well of a 96-well plate (using six replicates). Six vehicle controls with media or 0.5% DMSO were run for each 96 well plate as a control. After incubation for about 24 hours, the number of viable cells was determined by the MTT assay method. Briefly, the media was removed from the 96-well plates and replaced with about 100 μl of fresh culture RPMI 1640 medium without phenol red, then about 10 μl of about 12 mM MTT (Sigma) stock solution (5 mg of MTT in about 1 mL of PBS) was added to each well, including the untreated controls. The 96-well plates were then incubated at about 37° C. and at about 5% CO2 for about 4 hours. An 85 μl aliquot of the media was removed from the wells, and 50 μl of DMSO was added to each well and mixed thoroughly with the pipette and incubated at about 37° C. for about 10 minutes. The optical density was measured at 590 nm with a microplate reader to determine the number of viable cells. The percentage of viability was calculated as: (ODt/ODc)×100%, where ODt is the mean optical density of wells treated with the tested sample and ODe is the mean optical density of untreated cells. […]

The test system of test [2] is PC3 (prostate cancer) cells. The test is described as follows: MTT cell viability assay, PC3 cells. To be noted: Homo sapiens, PC-3, about 24 hours incubation. Here is the method: as §1
Test [3] deals with A-549 (Lung carcinoma) cells. The test is described as follows: MTT cell viability assay, A-549 cells. To be noted: Homo sapiens, A549, about 24 hours incubation. Here is the method:
as §1

Test [4] deals with CACO (colorectal carcinoma) cells. The test is described as follows: MTT cell viability assay, CACO cells. To be noted: Homo sapiens, about 24 hours incubation. As to the method: as §1
In test [5] the test system is HeLa (Cervical carcinoma) cells. Description: MTT cell viability assay, HeLa cells. The conditions noted are these: Homo sapiens, about 24 hours incubation. Here is the method:
as §1

For `CC[C@]1(O)C[C@@H]2CN(CCc3c([nH]c4ccccc34)[C@@](C(=O)OC)(c3cc4c(cc3OC)N(C)[C@H]3[C@@](O)(C(=O)OC)[C@H](OC(C)=O)[C@]5(CC)C=CCN6CC[C@]43[C@@H]65)C2)C1` [Vinblastine Sulfate, vinblastine sulfate], the IC50 in test [1] stood at 3.5 ± 0.2 µg/mL; in test [2] it was 21.2 ± 0.9 µg/mL; in test [3], 24.6 ± 0.7 µg/mL; in test [4] it was 30.3 ± 1.4 µg/mL; in test [5] it was 59.7 ± 2.1 µg/mL.
